Measured values published in the supplement of paper PMC10307832.

What was measured:
Test in all cases: relative viability (nuclei count vs DMSO), 5 days (fraction); higher = more cells survive
Linifanib + Dasatinib = compound: Cc1ccc(F)c(NC(=O)Nc2ccc(-c3cccc4[nH]nc(N)c34)cc2)c1 [Linifanib] + Cc1nc(Nc2ncc(C(=O)Nc3c(C)cccc3Cl)s2)cc(N2CCN(CCO)CC2)n1 [Dasatinib] (partner 0.075 µM)
Summary of the method: (§1)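 One day after seeding in 1536-well plates, lung cancer cell lines were dosed by pin tool. Dosing was either single-drug or a fixed anchor-drug dose plus five library-drug doses (not always all listed) in √10 steps. After 5 days, nuclei were stained in one fix-and-stain step and counted on 4× images, and relative viability is the nuclei count of treated wells over that of vehicle wells, given as the median of duplicate plates.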

Linifanib + Pictilisib = compound: Cc1ccc(F)c(NC(=O)Nc2ccc(-c3cccc4[nH]nc(N)c34)cc2)c1 [Linifanib] + CS(=O)(=O)N1CCN(Cc2cc3nc(-c4cccc5[nH]ncc45)nc(N4CCOCC4)c3s2)CC1 [Pictilisib] (partner 1 µM)
Summary of the method: as §1

Linifanib + Trametinib = compound: Cc1ccc(F)c(NC(=O)Nc2ccc(-c3cccc4[nH]nc(N)c34)cc2)c1 [Linifanib] + CC(=O)Nc1cccc(-n2c(=O)n(C3CC3)c(=O)c3c(Nc4ccc(I)cc4F)n(C)c(=O)c(C)c32)c1 [Trametinib] (partner 0.02 µM)
Summary of the method: as §1

Linifanib + Palbociclib = compound: Cc1ccc(F)c(NC(=O)Nc2ccc(-c3cccc4[nH]nc(N)c34)cc2)c1 [Linifanib] + CC(=O)c1c(C)c2cnc(Nc3ccc(N4CCNCC4)cn3)nc2n(C2CCCC2)c1=O [Palbociclib] (partner 0.5 µM)
Summary of the method: as §1

Linifanib + Alpelisib = compound: Cc1ccc(F)c(NC(=O)Nc2ccc(-c3cccc4[nH]nc(N)c34)cc2)c1 [Linifanib] + Cc1nc(NC(=O)N2CCC[C@H]2C(N)=O)sc1-c1ccnc(C(C)(C)C(F)(F)F)c1 [Alpelisib] (partner 2 µM)
Summary of the method: as §1

Linifanib + Lapatinib = compound: Cc1ccc(F)c(NC(=O)Nc2ccc(-c3cccc4[nH]nc(N)c34)cc2)c1 [Linifanib] + CS(=O)(=O)CCNCc1ccc(-c2ccc3ncnc(Nc4ccc(OCc5cccc(F)c5)c(Cl)c4)c3c2)o1 [Lapatinib] (partner 2 µM)
Summary of the method: as §1

Cell Line | relative viability (Linifanib + Dasatinib; first compound 0.03162 µM) | relative viability (Linifanib + Dasatinib; first compound 0.1 µM) | relative viability (Linifanib + Dasatinib; first compound 0.3162 µM) | relative viability (Linifanib + Pictilisib; first compound 0.03162 µM) | relative viability (Linifanib + Pictilisib; first compound 0.1 µM) | relative viability (Linifanib + Pictilisib; first compound 0.3162 µM) | relative viability (Linifanib + Trametinib; first compound 0.03162 µM) | relative viability (Linifanib + Trametinib; first compound 0.1 µM) | relative viability (Linifanib + Trametinib; first compound 0.3162 µM) | relative viability (Linifanib + Palbociclib; first compound 0.03162 µM) | relative viability (Linifanib + Palbociclib; first compound 0.1 µM) | relative viability (Linifanib + Palbociclib; first compound 0.3162 µM) | relative viability (Linifanib + Alpelisib; first compound 0.03162 µM) | relative viability (Linifanib + Alpelisib; first compound 0.1 µM) | relative viability (Linifanib + Alpelisib; first compound 0.3162 µM) | relative viability (Linifanib + Lapatinib; first compound 0.03162 µM) | relative viability (Linifanib + Lapatinib; first compound 0.1 µM) | relative viability (Linifanib + Lapatinib; first compound 0.3162 µM)
NCI-H2170 | 0.662 | 0.611 | 0.579 | 0.297 | 0.332 | 0.304 | 0.922 | 0.855 | 0.937 | 0.385 | 0.421 | 0.402 | 0.787 | 0.875 | 0.776 | 0.255 | 0.277 | 0.279
SK-LU-1 | 0.205 | 0.196 | 0.193 | 0.529 | 0.602 | 0.542 | 0.457 | 0.745 | 0.48 | 0.359 | 0.449 | 0.366 | 0.926 | 0.918 | 1.05 | 0.84 | 1.12 | 0.738
NCI-H650 | 0.461 | 0.451 | 0.444 | 0.777 | 0.905 | 0.871 | 0.935 | 0.967 | 0.952 | 0.37 | 0.308 | 0.376 | 1.09 | 1.04 | 1.14 | 1.16 | 0.941 | 0.766
LOU-NH91 | 0.61 | 0.612 | 0.558 | 0.498 | 0.523 | 0.557 | 0.775 | 0.798 | 0.762 | 0.551 | 0.517 | 0.51 | 0.686 | 0.771 | 0.704 | 0.772 | 0.828 | 0.747
LK-2 | 0.308 | 0.349 | 0.403 | 0.495 | 0.537 | 0.489 | 0.707 | 0.769 | 0.742 | 0.564 | 1.01 | 0.565 | 0.895 | 1.06 | 1.01 | 0.931 | 1.06 | 0.915
LC-2-ad | 0.618 | 0.871 | 0.489 | 0.379 | 0.57 | 0.437 | 0.87 | 0.924 | 0.824 | 0.499 | 0.471 | 0.421 | 0.749 | 0.912 | 0.752 | 1.06 | 1.04 | 0.883
NCI-H2085 | 0.252 | 0.239 | 0.268 | 0.426 | 0.711 | 0.484 | 0.67 | 0.503 | 0.59 | 0.485 | 0.474 | 0.463 | 0.923 | 1.13 | 0.916 | 0.809 | 0.83 | 0.734
H3255 | 0.457 | 0.364 | 0.364 | 0.509 | 0.507 | 0.488 | 0.629 | 0.698 | 0.554 | 0.358 | 0.302 | 0.312 | 0.752 | 0.787 | 0.706 | 0.246 | 0.508 | 0.242
